Measurements: ChEMBL document CHEMBL3886852, “Triazolo compounds as PDE10 inhibitors” (2016)

Each molecule was assayed against cAMP and cAMP-inhibited cGMP 3',5'-cyclic phosphodiesterase 10A (Homo sapiens, UniProt Q9Y233) (assay: Scintillation Proximity Assay: The human PDE10A full length assay was performed in 96-well micro titer plates. The reaction mixture of 50 μl contained 20 mM HEPES pH=7.5/10 mM MgCl2/0.05 mg/ml BSA (Sigma cat. # A-7906), 50 nM cGMP (Sigma, cat. # G6129) and 50 nM [3H]-cGMP (GE Healthcare, cat. # TRK392 S.A. 13.2 Ci/mmol), 3.75 ng/well PDE10A enzyme (Enzo Life Science, Lausen, Switzerland cat # SE-534) with or without a specific test compound. A range of concentrations of the potential inhibitor was used to generate data for calculating the concentration of inhibitor resulting in 50% of the effect (e.g. IC50, the concentration of the competitor inhibiting PDE10A activity by 50%). Non-specific activity was tested without the enzyme. The reaction was initiated by the addition of the substrate solution (cGMP and [3H]-cGMP) and allowed to progress for 20 minutes at room temperature. The reaction was terminated by adding 25 μl of YSi-SPA scintillation beads (GE Healthcare, cat. # RPNQ0150) in 18 mM zinc sulphate solution (stop reagent). After 1 h under shaking, the plate was centrifuged one minute at 170 g to allow beads to settle. Afterwards, radioactive counts were measured on a Perkin Elmer Top-Count Scintillation plate reader.).
cAMP and cAMP-inhibited cGMP 3',5'-cyclic phosphodiesterase 10A, sequence (Q9Y233 whole entry): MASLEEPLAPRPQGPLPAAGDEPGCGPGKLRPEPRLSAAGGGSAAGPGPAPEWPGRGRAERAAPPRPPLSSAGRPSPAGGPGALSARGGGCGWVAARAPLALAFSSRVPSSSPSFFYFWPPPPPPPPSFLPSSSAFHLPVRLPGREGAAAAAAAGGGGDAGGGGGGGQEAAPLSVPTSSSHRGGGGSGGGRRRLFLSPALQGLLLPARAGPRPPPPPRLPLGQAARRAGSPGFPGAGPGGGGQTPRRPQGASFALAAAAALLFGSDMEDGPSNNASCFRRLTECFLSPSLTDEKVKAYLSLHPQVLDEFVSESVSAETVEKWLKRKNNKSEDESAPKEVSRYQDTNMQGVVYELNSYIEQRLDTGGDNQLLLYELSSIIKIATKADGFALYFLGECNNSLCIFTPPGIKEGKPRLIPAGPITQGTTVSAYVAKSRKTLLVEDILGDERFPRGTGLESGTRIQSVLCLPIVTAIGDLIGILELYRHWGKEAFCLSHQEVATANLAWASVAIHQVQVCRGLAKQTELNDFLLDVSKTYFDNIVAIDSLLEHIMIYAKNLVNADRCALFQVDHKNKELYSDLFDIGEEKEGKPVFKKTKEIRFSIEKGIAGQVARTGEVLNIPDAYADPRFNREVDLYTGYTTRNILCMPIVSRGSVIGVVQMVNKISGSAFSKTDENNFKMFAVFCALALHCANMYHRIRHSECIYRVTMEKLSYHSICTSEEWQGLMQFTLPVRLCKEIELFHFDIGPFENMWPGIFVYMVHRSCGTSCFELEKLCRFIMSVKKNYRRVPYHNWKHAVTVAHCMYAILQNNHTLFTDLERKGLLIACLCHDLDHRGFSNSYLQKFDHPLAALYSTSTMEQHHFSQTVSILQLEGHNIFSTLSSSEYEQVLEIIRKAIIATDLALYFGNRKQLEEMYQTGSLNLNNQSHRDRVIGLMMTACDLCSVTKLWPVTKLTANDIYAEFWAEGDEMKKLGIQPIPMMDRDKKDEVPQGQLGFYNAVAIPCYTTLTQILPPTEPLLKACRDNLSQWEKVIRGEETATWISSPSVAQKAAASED

Row | IC50 [nM] | SMILES
1 | 3.47 | Cc1c(C#N)ccc2nc(CCc3nc(N4CCCC4)nn3C)nn12
2 | 2.68 | Cc1ncc(C)n2nc(CCc3nc(N4CCCC4)n(C)n3)nc12
3 | 334 | Cc1ncc(C)n2nc(CCc3nc(N(C)C)nn3C)nc12
4 | 36.5 | Cn1nc(N2CCCC2)nc1CCc1nc2c(Br)cc(C(F)(F)F)cn2n1
5 | 4.49 | Cc1ccn2nc(CCc3nc(N4CCCC4)nn3C)nc2c1C
